Experimental data: patent US12600709B2, “Nonpeptide somatostatin type 5 receptor agonists and uses thereof” (Crinetics Pharmaceuticals, Inc., priority 2019, dated 2026)
Like-named read-outs stand apart in the source and are kept apart here.

Legend:
[1] = target: T1, human somatostatin receptor subtype 2 (Homo sapiens, UniProt P30874); assay: cAMP assay for SST2R (inhibition of cAMP in CHO-K1 cells); format: cell-based; settings: Table B; inhibition of cAMP via human SST2 receptor; read-out: SST2 potency
T1 construct: expressed in transfected cells
Outline: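 CHO-K1 cells stably expressing human SSTR2, plated 4 days prior, treated 20 min at 37° C with 1.6 μM NKH477 plus compound dilutions in HBSS/HEPES pH 7.4/0.1% BSA/0.2 mM IBMX. Lysate cAMP measured by HTRF against standard curve; EC50 from concentration-response.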

[2] = target: T2, human somatostatin receptor subtype 5 (Homo sapiens, UniProt P35346); assay: cAMP assay for SST5R (inhibition of cAMP in CHO-K1 cells); format: cell-based; settings: for EC50: inhibition of cAMP via human SST5 receptor, read-out: SST5 potency; for Fold selectivity for SST5 vs SST2: class symbols, SST5 receptor over SST2 receptor
T2 construct: expressed in transfected cells
Outline: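 CHO-K1 cells stably expressing human SSTR5 were treated 20 min at 37 °C with compounds plus 1.6 μM NKH477 in HBSS, 0.5 mM HEPES pH 7.4, 0.1% BSA, 0.2 mM IBMX. Lysate cAMP measured by HTRF against a standard curve; EC50 from cAMP-versus-concentration plots.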

T2 sequence (P35346 whole entry): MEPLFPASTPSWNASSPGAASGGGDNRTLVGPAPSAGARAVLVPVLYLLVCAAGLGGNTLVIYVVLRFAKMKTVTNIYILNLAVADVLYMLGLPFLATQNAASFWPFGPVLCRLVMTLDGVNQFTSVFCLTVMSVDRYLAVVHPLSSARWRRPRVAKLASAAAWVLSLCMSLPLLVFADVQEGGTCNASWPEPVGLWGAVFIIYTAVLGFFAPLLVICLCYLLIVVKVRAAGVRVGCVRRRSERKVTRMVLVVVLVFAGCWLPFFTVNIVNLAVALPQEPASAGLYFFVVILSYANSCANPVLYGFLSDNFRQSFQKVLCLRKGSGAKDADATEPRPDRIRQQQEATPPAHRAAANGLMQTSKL
T1 sequence (P30874 whole entry): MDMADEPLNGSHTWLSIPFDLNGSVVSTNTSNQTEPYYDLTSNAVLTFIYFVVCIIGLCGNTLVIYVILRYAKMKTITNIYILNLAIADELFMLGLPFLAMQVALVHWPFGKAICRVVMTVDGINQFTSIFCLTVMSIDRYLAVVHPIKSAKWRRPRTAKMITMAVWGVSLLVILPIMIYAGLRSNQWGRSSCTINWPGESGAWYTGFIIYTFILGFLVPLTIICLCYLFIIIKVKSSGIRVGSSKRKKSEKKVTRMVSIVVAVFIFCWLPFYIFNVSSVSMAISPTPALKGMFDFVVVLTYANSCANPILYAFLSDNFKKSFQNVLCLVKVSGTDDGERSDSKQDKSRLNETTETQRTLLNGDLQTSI

Row | Compound | EC50 [1] [nM] | EC50 ([2]; Table A) [nM] | Fold selectivity for SST5 vs SST2 ([2]; Table B) | EC50 ([2]; Table B) [nM]
1 | CCC(CC)NC(=O)c1cnc(C#N)c(-c2cc(F)cc(F)c2)c1N1CC[C@](C)(N)C1 [1-76, 4-[(3S)-3-amino-3-methylpyrrolidin-1-yl]-6-cyano-5-(3,5-difluorophenyl)-N-(pentan-3-yl)pyridine-3-carboxamide] | > 1000 | < 10 | +++ (+++=>500) | < 10
2 | N#Cc1ncc(C(=O)NC23CC(C2)C3)c(N2CC[C@H](N)C2)c1-c1cc(F)cc(Cl)c1 [1-90, 4-[(3S)-3-aminopyrrolidin-1-yl]-N-{bicyclo[1.1.1]pentan-1-yl}-5-(3-chloro-5-fluorophenyl)-6-cyanopyridine-3-carboxamide] | 100 to 1000 | < 10 | +++ (+++=>500) | < 10
3 | COc1cc(C#N)cc(-c2cncc(C(=O)NC34CC(C3)C4)c2N2CC[C@](C)(N)C2)c1 [1-94, 4-[(3S)-3-amino-3-methylpyrrolidin-1-yl]-N-{bicyclo[1.1.1]pentan-1-yl}-5-(3-cyano-5-methoxyphenyl)pyridine-3-carboxamide] | 100 to 1000 | < 10 | ++ (++=100 to 499) | < 10
4 | COc1cc(C#N)cc(-c2cncc(C(=O)N[C@@H](C)C3CC3)c2N2CC[C@](C)(N)C2)c1 [1-96, 4-[(3S)-3-amino-3-methylpyrrolidin-1-yl]-5-(3-cyano-5-methoxyphenyl)-N-[(1S)-1-cyclopropylethyl]pyridine-3-carboxamide] | 100 to 1000 | < 10 | ++ (++=100 to 499) | < 10
5 | N#Cc1ncc(C(=O)NC23CC(C2)C3)c(N2CC[C@@](N)(CO)C2)c1-c1cc(F)cc(F)c1 [1-98, 4-[(3S)-3-amino-3-(hydroxymethyl)pyrrolidin-1-yl]-N-{bicyclo[1.1.1]pentan-1-yl}-6-cyano-5-(3,5-difluorophenyl)pyridine-3-carboxamide] | 100 to 1000 | < 10 | ++ (++=100 to 499) | < 10
6 | CC(N)C1CN(c2c(C(=O)NC34CC(C3)C4)cnc(C#N)c2-c2cc(F)cc(F)c2)C1 (centres unmarked) [1-100, 4-[3-(1-aminoethyl)azetidin-1-yl]-N-{bicyclo[1.1.1]pentan-1-yl}-6-cyano-5-(3,5-difluorophenyl)pyridine-3-carboxamide] | > 1000 | < 10 | +++ (+++=>500) | < 10
7 | N#Cc1ncc(C(=O)NC23CC(C2)C3)c(N2C[C@@H](N)[C@H](F)C2)c1-c1cc(F)cc(F)c1 [1-101, 4-[(3R,4R)-3-amino-4-fluoropyrrolidin-1-yl]-N-{bicyclo[1.1.1]pentan-1-yl}-6-cyano-5-(3,5-difluorophenyl)pyridine-3-carboxamide] | > 1000 | < 10 | +++ (+++=>500) | < 10
8 | C[C@H](NC(=O)c1cnc(C#N)c(-c2cc(F)cc(F)c2)c1N1CC[C@](C)(N)C1)c1ccccn1 [1-103, 4-[(3S)-3-amino-3-methylpyrrolidin-1-yl]-6-cyano-5-(3,5-difluorophenyl)-N-[(1S)-1-(pyridin-2-yl)ethyl]pyridine-3-carboxamide] | > 1000 | < 10 | +++ (+++=>500) | < 10
9 | Cn1nccc1CNC(=O)c1cnc(C#N)c(-c2cc(F)cc(F)c2)c1N1CC[C@](C)(N)C1 [1-104, 4-[(3S)-3-amino-3-methylpyrrolidin-1-yl]-6-cyano-5-(3,5-difluorophenyl)-N-[(1-methyl-1H-pyrazol-5-yl)methyl]pyridine-3-carboxamide] | > 1000 | < 10 | +++ (+++=>500) | < 10
10 | C[C@]1(N)CCN(c2c(C(=O)NCc3ncccn3)cnc(C#N)c2-c2cc(F)cc(F)c2)C1 [1-108, 4-[(3S)-3-amino-3-methylpyrrolidin-1-yl]-6-cyano-5-(3,5-difluorophenyl)-N-[(pyrimidin-2-yl)methyl]pyridine-3-carboxamide] | > 1000 | < 10 | +++ (+++=>500) | < 10
11 | N#Cc1ncc(C(=O)NCCCc2ccccc2)c(N2CC[C@H](N)C2)c1-c1cc(F)cc(F)c1 [1-110, 4-[(3S)-3-aminopyrrolidin-1-yl]-6-cyano-5-(3,5-difluorophenyl)-N-(3-phenylpropyl)pyridine-3-carboxamide] | > 1000 | < 10 | +++ (+++=>500) | < 10

Further lines, results first:

Row | EC50 [1] [nM] | EC50 ([2]; Table A) [nM] | Fold selectivity for SST5 vs SST2 ([2]; Table B) | EC50 ([2]; Table B) [nM] | Compound
12 | 10 to 100 | < 10 | +++ (+++=>500) | < 10 | C[C@H](NC(=O)c1cnc(C#N)c(-c2cc(F)cc(F)c2)c1N1CC[C@](C)(N)C1)C1CC1 [1-77, 4-[(3S)-3-amino-3-methylpyrrolidin-1-yl]-6-cyano-N-[(1S)-1-cyclopropylethyl]-5-(3,5-difluorophenyl)pyridine-3-carboxamide]
13 | 10 to 100 | < 10 | +++ (+++=>500) | < 10 | C[C@]1(N)CCN(c2c(C(=O)NC3CCCC3)cnc(C#N)c2-c2cc(F)cc(F)c2)C1 [1-78, 4-[(3S)-3-amino-3-methylpyrrolidin-1-yl]-6-cyano-N-cyclopentyl-5-(3,5-difluorophenyl)pyridine-3-carboxamide]
14 | 100 to 1000 | < 10 | +++ (+++=>500) | < 10 | C[C@]1(N)CCN(c2c(C(=O)NC3CC(F)(F)C3)cnc(C#N)c2-c2cc(F)cc(F)c2)C1 [1-79, 4-[(3S)-3-amino-3-methylpyrrolidin-1-yl]-6-cyano-N-(3,3-difluorocyclobutyl)-5-(3,5-difluorophenyl)pyridine-3-carboxamide]
15 | 100 to 1000 | < 10 | +++ (+++=>500) | < 10 | N#Cc1ncc(C(=O)NC2CCCCC2)c(N2CC[C@H](N)C2)c1-c1cc(F)cc(F)c1 [1-81, 4-[(3S)-3-aminopyrrolidin-1-yl]-6-cyano-N-cyclohexyl-5-(3,5-difluorophenyl)pyridine-3-carboxamide]
16 | 100 to 1000 | < 10 | +++ (+++=>500) | < 10 | CC(C)CNC(=O)c1cnc(C#N)c(-c2cc(F)cc(F)c2)c1N1CC[C@](C)(N)C1 [1-85, 4-[(3S)-3-amino-3-methylpyrrolidin-1-yl]-6-cyano-5-(3,5-difluorophenyl)-N-(2-methylpropyl)pyridine-3-carboxamide]
17 | 100 to 1000 | < 10 | +++ (+++=>500) | < 10 | C[C@]1(N)CCN(c2c(C(=O)NCC3CC3)cnc(C#N)c2-c2cc(F)cc(F)c2)C1 [1-86, 4-[(3S)-3-amino-3-methylpyrrolidin-1-yl]-6-cyano-N-(cyclopropylmethyl)-5-(3,5-difluorophenyl)pyridine-3-carboxamide]
18 | 100 to 1000 | < 10 | +++ (+++=>500) | < 10 | C[C@]1(N)CCN(c2c(C(=O)NC3CCC3)cnc(C#N)c2-c2cc(F)cc(F)c2)C1 [1-87, 4-[(3S)-3-amino-3-methylpyrrolidin-1-yl]-6-cyano-N-cyclobutyl-5-(3,5-difluorophenyl)pyridine-3-carboxamide]
19 | 100 to 1000 | < 10 | +++ (+++=>500) | < 10 | CC(C)NC(=O)c1cnc(C#N)c(-c2cc(F)cc(F)c2)c1N1CC[C@](C)(N)C1 [1-91, 4-[(3S)-3-amino-3-methylpyrrolidin-1-yl]-6-cyano-5-(3,5-difluorophenyl)-N-(propan-2-yl)pyridine-3-carboxamide]
20 | 100 to 1000 | < 10 | +++ (+++=>500) | < 10 | C[C@]1(N)CCN(c2c(C(=O)NCC(F)(F)F)cnc(C#N)c2-c2cc(F)cc(F)c2)C1 [1-92, 4-[(3S)-3-amino-3-methylpyrrolidin-1-yl]-6-cyano-5-(3,5-difluorophenyl)-N-(2,2,2-trifluoroethyl)pyridine-3-carboxamide]
21 | 10 to 100 | < 10 | +++ (+++=>500) | < 10 | C[C@]1(N)CCN(c2c(C(=O)NC3CCCCC3)cnc(C#N)c2-c2cc(F)cc(F)c2)C1 [1-93, 4-[(3S)-3-amino-3-methylpyrrolidin-1-yl]-6-cyano-N-cyclohexyl-5-(3,5-difluorophenyl)pyridine-3-carboxamide]
22 | 100 to 1000 | < 10 | +++ (+++=>500) | < 10 | C[C@]1(N)CCN(c2c(C(=O)NC3CCCCC3)cncc2-c2cc(F)cc(F)c2)C1 [1-112, 4-[(3S)-3-amino-3-methylpyrrolidin-1-yl]-N-cyclohexyl-5-(3,5-difluorophenyl)pyridine-3-carboxamide]
23 | > 1000 | < 10 | +++ (+++=>500) | < 10 | CC1(C)CC(NC(=O)c2cnc(C#N)c(-c3cc(F)cc(F)c3)c2N2CC[C@](C)(N)C2)CCO1 (stereo partly drawn) [1-113, 4-[(3S)-3-amino-3-methylpyrrolidin-1-yl]-6-cyano-5-(3,5-difluorophenyl)-N-(2,2-dimethyloxan-4-yl)pyridine-3-carboxamide]
